Laboratory results taken from patent EP2346328B1, “USE OF COSTIC ACID OR EXTRACTS OF DITTRICHIA VISCOSA AGAINST VARROA DESTRUCTOR” (Katerinopoulos, E. Haralambos, priority 2008, dated 2009).

Assays:
[1] = Cytotoxicity assay in human cells (WST-1); type: cell-based; settings: HUVEC, 24 h exposure, WST-1 absorbance after 4h and 24h, read-out: concentrations at which not cytotoxic
Experimental: Example 4.Cytotoxicity assays in human cells. Cytotoxicity of costic acid was measured in human umbilical vein endothelial cells (HUVEC), using the Cell Proliferation Reagent WST-1 (Cat. No. 13396300, Roche). The assay was performed according to the instructions protocol. Cells (7500 per well) were exposed to different concentrations of costic acid for 24 h before adding the WST-1 reagent. After 4h and again after 24h the absorbance was measured using an Optimax UV/VIS spectrometer (wavelengths: 440nm and 650nm). Costic acid was not cytotoxic at concentrations up to 230 micromolar.

[2] = test system: V. destructor; experiment: In vivo vial experiments with V. destructor: mite mortality on exposure to treated filter paper; design: species or system Varroa destructor
Experimental: In vivo Experiments with V. destructor. The mites (V. destructor) were collected from colonies of A. mellifera. For mite collection two different methods were used: The first method involved removal of the mites from infected adult bees using a soft brush with the help of a stereoscope. In method b) infected adult honeybees were transferred directly from bee frames into a wire-screen cylinder. Then the cylinder was placed inside a second Plexiglas cylinder and CO2 was released for 5 min with a flow rate of 5 l/min causing anaesthesia to the mites (as well as to the bees). The whole apparatus was then shaken several times to separate the mites from the bees. In a few minutes they had recovered from the effect of the anaesthesia.^39
Using a stereoscope binocular set varroa was placed in 20 mL glass vials. Stock solutions of the extraction materials were prepared in acetone in 10 mg/mL concentrations. In each experiment 20, 60, or 100 microliter aliquots of the stock solution were placed on filter paper adjusted to the cups of 20 ml vials, each containing five living mites. Acetone was used in the control experiments which were performed in five replicates. In both cases the solvent was allowed to evaporate before covering the vials. The vials were kept in an incubator at 37 C. Mortality of mites was recorded under a stereoscope binocular set after 5, 8, 12, and 19 hours.

[3] = test system: varroa; experiment: Field tests on bee populations: count of dead varroa after spraying; type: in vivo, Varroa destructor; settings: after ten days; commercial acaricides; sprayed directly on the bees (100 mL per group, oxalic acid 70 mL)
Experimental: Example 5. Field Tests on bee populations. Field test were conducted using 40 bees on each trial at various locations on the island of Crete such as the Lassithi Plateau and the Messara Plains. In the field tests, Group B' extract was used in a solution of 1 g of this extract in 1 ml ethanol that was further diluted with water to a total volume of 1 L. A second solution was prepared as described above, using 2 g of Group B' mixture. For comparison purposes, each bee population was divided in […] groups. Two of these groups were treated with commercial acaricides A fifth, control group, was sprayed with deionized water. As known acaricide preparations were used a) BAYVAROL (active ingredient: Flumethrine) and b) a 4% solution of oxalic acid in 50% sugar solution. The total volume of solutions that were sprayed directly on the bees was 100 mL per group. In the case of the oxalic acid solution, the volume was 70 mL. Dead varroa was collected on a sheet of paper covered with Vaseline and sunflower oil. After ten days, the number of dead varroa was counted. Considering the number of dead varroa in the oxalic acid experiment as 100%, the respective numbers were 60% for either extract preparation, 55% for BAYVAROL and 8% for the control.

In the case of `C=C(C(=O)O)C1CCC2(C)CCCC(=C)C2C1` (stereo not drawn) [costic acid], the MNTC at 24 h [1] is reported as ≥ 230 µM, the “optimal concentration of the stock solution” value ([2]; 10 mg/mL stock solution in acetone, higher concentrations did not enhance activity) is reported as 60 microliter per vial and the “percent mortality of varroa” value ([2]; Fig. 1, 20 or 60 or 100 microliters of 10mg/mL acetone solutions) is reported as “increases drastically”. The “time after application of the largest activity difference between costic acid and total extract” value ([2]; Fig. 2, activity as a function of time of application) was 8 h and the acaricidal activity ([2]; in vivo vial experiments, fractions and isolated components of D. viscosa extract) was “acaricidal activity rested in costic acid”.

For `O=C(O)C(=O)O` [oxalic acid], the “number of dead varroa, oxalic acid experiment as 100%” value [3] was 100%.
